Key:
[1] = tested on: baseline bacterial pathogen in cUTI or AP; test: ZEUS Phase 2/3 noninferiority trial, efficacy at TOC in hospitalized adults; assay type: in vivo, human; settings: for overall success rates at TOC: m-MITT population, clinical cure plus microbiologic eradication, 6 g ZTI-01 q8h or 4.5 g P-T q8h IV; for overall success rates using unique pathogen strains typed by PFGE: post-hoc analysis
Description: Oral step-down therapy was prohibited (FIG. 4).
A post-hoc analysis using pulsed-field gel electrophoresis (PFGE) was performed to molecularly type all baseline and TOC pathogens (both treatment arms), in order to confirm microbiological eradication/persistence; a total of 20 post-baseline pathogens were identified as unique, unrelated strains compared to baseline.

[2] = ZEUS Phase 2/3 trial, safety (adverse events); settings: for Any AEs / Any TEAEs / Drug-related SAE / Drug-related TEAEs / SAEs / Serious TEAEs leading to study drug discontinuation / TEAEs leading to study drug discontinuation / TEAEs: Mild / TEAEs: Moderate / TEAEs: Severe: MITT Safety Population (n = 233 ZTI-01, n = 231 P-T); for SAE related to study drug (1 in each treatment group): in vivo
[3] = Bacteremia, m-MITT (N1 19 ZTI-01, 13 P-T)
[4] = CE-TOC (N1 199 ZTI-01, 196 P-T)
[5] = ME-TOC (N1 155 ZTI-01, 145 P-T)
[6] = Original Analysis, ME-TOC (N1 155 ZTI-01, 145 P-T)
[7] = Original Analysis, m-MITT (N1 184 ZTI-01, 178 P-T)
[8] = Post-hoc Analysis Using PFGE Typing, ME-TOC (N1 155 ZTI-01, 145 P-T)
[9] = Post-hoc Analysis Using PFGE Typing, m-MITT (N1 184 ZTI-01, 178 P-T)
[10] = SIRS, m-MITT (N1 62 ZTI-01, 52 P-T)
[11] = m-MITT (N1 184 ZTI-01, 178 P-T)

piperacillin/tazobactam [P-T]
Clinical Response at TOC: Eradication [1, 3]: 10 (76.9%) n (%)
Clinical Response at TOC: Indeterminate [1, 3]: 0 (0%) n (%)
Clinical Response at TOC: Persistence [1, 3]: 3 (23.1%) n (%)
Overall Response at TOC: Eradication [1, 3]: 5 (38.5%) n (%)
Overall Response at TOC: Indeterminate [1, 3]: 0 (0%) n (%)
Overall Response at TOC: Persistence [1, 3]: 8 (61.5%) n (%)
Per-patient Microbiological Response at TOC: Eradication [1, 3]: 6 (46.2%) n (%)
Per-patient Microbiological Response at TOC: Indeterminate [1, 3]: 0 (0%) n (%)
Per-patient Microbiological Response at TOC: Persistence [1, 3]: 7 (53.8%) n (%)
Clinical Response at TOC: Cure [1, 4]: 182 (92.9%) n (%)
Clinical Response at TOC: Failure [1, 4]: 14 (7.1%) n (%)
Clinical Response at TOC: Cure [1, 5]: 135 (93.1%) n (%)
Clinical Response at TOC: Failure [1, 5]: 10 (6.9%) n (%)
Clinical Response at TOC: Cure ([1]; MITT (N1 233 ZTI-01, 231 P-T)): 212 (91.8%) n (%)
Clinical Response at TOC: Failure ([1]; MITT (N1 233 ZTI-01, 231 P-T)): 16 (6.9%) n (%)
Clinical Response at TOC: Indeterminate ([1]; MITT (N1 233 ZTI-01, 231 P-T)): 3 (1.3%) n (%)
Microbiological Response at TOC: Eradication [1, 6]: 86 (59.3%) n (%)
Microbiological Response at TOC: Persistence [1, 6]: 59 (40.7%) n (%)
Microbiological Response at TOC: Eradication [1, 7]: 100 (56.2%) n (%)
Microbiological Response at TOC: Indeterminate [1, 7]: 9 (5.1%) n (%)
Microbiological Response at TOC: Persistence [1, 7]: 69 (38.8%) n (%)
Microbiological Response at TOC: Eradication [1, 8]: 93 (64.1%) n (%)
Microbiological Response at TOC: Persistence [1, 8]: 52 (35.9%) n (%)
Microbiological Response at TOC: Eradication [1, 9]: 107 (60.1%) n (%)
Microbiological Response at TOC: Indeterminate [1, 9]: 9 (5.1%) n (%)
Microbiological Response at TOC: Persistence [1, 9]: 62 (34.8%) n (%)
Clinical Response at TOC: Eradication [1, 10]: 48 (92.3%) n (%)
Clinical Response at TOC: Indeterminate [1, 10]: 2 (3.8%) n (%)
Clinical Response at TOC: Persistence [1, 10]: 2 (3.8%) n (%)
Overall Response at TOC: Eradication [1, 10]: 39 (75.0%) n (%)
Overall Response at TOC: Indeterminate [1, 10]: 2 (3.8%) n (%)
Overall Response at TOC: Persistence [1, 10]: 11 (21.2%) n (%)
Patient Microbiological response at TOC: Eradication [1, 10]: 40 (76.9%) n (%)
Patient Microbiological response at TOC: Indeterminate [1, 10]: 2 (3.8%) n (%)
Patient Microbiological response at TOC: Persistence [1, 10]: 10 (19.2%) n (%)
Clinical Response at TOC: Cure [1, 11]: 163 (91.6%) n (%)
Clinical Response at TOC: Failure [1, 11]: 12 (6.7%) n (%)
Clinical Response at TOC: Indeterminate [1, 11]: 3 (1.7%) n (%)
overall success rates at TOC [1]: 54.5%
overall success rates using unique pathogen strains typed by PFGE ([1]; m-MITT, TOC): 57.3%
Any AEs [2]: 74 (32.0%) n (%)
Any TEAEs [2]: 74 (32.0%) n (%)
Drug-related SAE [2]: 1 (0.4%) n (%)
Drug-related TEAEs [2]: 32 (13.9%) n (%)
SAEs [2]: 6 (2.6%) n (%)
Serious TEAEs leading to study drug discontinuation [2]: 1 (0.4%) n (%)
TEAEs leading to study drug discontinuation [2]: 6 (2.6%) n (%)
TEAEs: Mild [2]: 49 (21.2%) n (%)
TEAEs: Moderate [2]: 38 (16.5%) n (%)
TEAEs: Severe [2]: 4 (1.7%) n (%)
SAE related to study drug (1 in each treatment group) [2]: renal insufficiency

C[C@@H]1O[C@@H]1P(=O)(O)O [ZTI-01, fosfomycin]
Clinical Response at TOC: Eradication [1, 3]: 15 (78.9%) n (%)
Clinical Response at TOC: Indeterminate [1, 3]: 2 (10.5%) n (%)
Clinical Response at TOC: Persistence [1, 3]: 2 (10.5%) n (%)
Overall Response at TOC: Eradication [1, 3]: 9 (47.4%) n (%)
Overall Response at TOC: Indeterminate [1, 3]: 3 (15.8%) n (%)
Overall Response at TOC: Persistence [1, 3]: 7 (36.8%) n (%)
Per-patient Microbiological Response at TOC: Eradication [1, 3]: 9 (47.4%) n (%)
Per-patient Microbiological Response at TOC: Indeterminate [1, 3]: 4 (21.2%) n (%)
Per-patient Microbiological Response at TOC: Persistence [1, 3]: 6 (31.6%) n (%)
Clinical Response at TOC: Cure [1, 4]: 188 (94.5%) n (%)
Clinical Response at TOC: Failure [1, 4]: 11 (5.5%) n (%)
Clinical Response at TOC: Treatment Difference (ZTI-01 vs P-T) ([1]; CE-TOC, 95% CI (−3.7, 6.9)): 1.6%
Clinical Response at TOC: Cure [1, 5]: 148 (95.5%) n (%)
Clinical Response at TOC: Failure [1, 5]: 7 (4.5%) n (%)
Clinical Response at TOC: Treatment Difference (ZTI-01 vs P-T) ([1]; ME-TOC, 95% CI (−3.5, 8.3)): 2.4%
Clinical Response at TOC: Cure ([1]; MITT (N1 233 ZTI-01, 231 P-T)): 211 (90.6%) n (%)
Clinical Response at TOC: Failure ([1]; MITT (N1 233 ZTI-01, 231 P-T)): 11 (4.7%) n (%)
Clinical Response at TOC: Indeterminate ([1]; MITT (N1 233 ZTI-01, 231 P-T)): 11 (4.7%) n (%)
Clinical Response at TOC: Treatment Difference (ZTI-01 vs P-T) ([1]; MITT, 95% CI (−6.8, 4.4)): −1.2%
Microbiological Response at TOC: Eradication [1, 6]: 109 (70.3%) n (%)
Microbiological Response at TOC: Persistence [1, 6]: 46 (29.7%) n (%)
Microbiological Response at TOC: Eradication [1, 7]: 121 (65.8%) n (%)
Microbiological Response at TOC: Indeterminate [1, 7]: 13 (7.1%) n (%)
Microbiological Response at TOC: Persistence [1, 7]: 50 (27.2%) n (%)
Microbiological Response at TOC: Eradication [1, 8]: 117 (75.5%) n (%)
Microbiological Response at TOC: Persistence [1, 8]: 38 (24.5%) n (%)
Microbiological Response at TOC: Eradication [1, 9]: 130 (70.7%) n (%)
Microbiological Response at TOC: Indeterminate [1, 9]: 13 (7.1%) n (%)
Microbiological Response at TOC: Persistence [1, 9]: 41 (22.3%) n (%)
Clinical Response at TOC: Eradication [1, 10]: 55 (88.7%) n (%)
Clinical Response at TOC: Indeterminate [1, 10]: 4 (6.5%) n (%)
Clinical Response at TOC: Persistence [1, 10]: 3 (4.8%) n (%)
Overall Response at TOC: Eradication [1, 10]: 41 (66.1%) n (%)
Overall Response at TOC: Indeterminate [1, 10]: 5 (8.1%) n (%)
Overall Response at TOC: Persistence [1, 10]: 16 (25.8%) n (%)
Patient Microbiological response at TOC: Eradication [1, 10]: 41 (66.1%) n (%)
Patient Microbiological response at TOC: Indeterminate [1, 10]: 7 (11.3%) n (%)
Patient Microbiological response at TOC: Persistence [1, 10]: 14 (22.6%) n (%)
Clinical Response at TOC: Cure [1, 11]: 167 (90.8%) n (%)
Clinical Response at TOC: Failure [1, 11]: 9 (4.9%) n (%)
Clinical Response at TOC: Indeterminate [1, 11]: 8 (4.3%) n (%)
overall success rates at TOC [1]: 64.7%
difference in overall success rate (ZTI-01 vs P-T) ([1]; m-MITT, TOC, 95% CI −0.4, 20.8): 10.2%
Clinical Response at TOC: Treatment Difference (ZTI-01 vs P-T) ([1]; m-MITT, 95% CI (−7.2, 5.6)): −0.8%
overall success rates using unique pathogen strains typed by PFGE ([1]; m-MITT, TOC): 69.0%
difference in overall success rate using PFGE typing (ZTI-01 vs P-T) ([1]; post-hoc, 95% CI 1.3, 22.1): 11.7%
effective (patients with AP) ([1]; preferred dosing regimen 6 g tid): 68%
Any AEs [2]: 99 (42.5%) n (%)
Any TEAEs [2]: 98 (42.1%) n (%)
Drug-related SAE [2]: 1 (0.4%) n (%)
Drug-related TEAEs [2]: 48 (20.6%) n (%)
SAEs [2]: 5 (2.1%) n (%)
Serious TEAEs leading to study drug discontinuation [2]: 0 (0%) n (%)
TEAEs leading to study drug discontinuation [2]: 7 (3.0%) n (%)
TEAEs: Mild [2]: 84 (36.1%) n (%)
TEAEs: Moderate [2]: 35 (15.0%) n (%)
TEAEs: Severe [2]: 5 (2.1%) n (%)
SAE related to study drug (1 in each treatment group) [2]: hypokalemia
tolerability ([2]; majority of AEs mild to moderate): generally well tolerated
treatment-emergent adverse events (TEAEs) observed, % of patients ([2]; safety population (n=464)): 42.1%
